In US20240018146A1, “COMPOSITIONS AND METHODS OF USING THE SAME FOR TREATMENT OF NEURODEGENERATIVE AND MITOCHONDRIAL DISEASE” (MITOKININ, INC., priority 2020, published 2024):
Values after ≈ are worked out from the molar mass of the structure shown. Where two headings read alike, the source gives them in different places.

Experiments:
HeLa MKYP cells [1] = experiment: Human mitophagy assay (HeLa mKeima assay, FACS); type: cell-based; conditions: for EC50: Homo sapiens, HeLa
Summary of the method: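 Mitophagy, read by FACS as the share of cells showing the lysosomal mtKeima emission shift, followed 6 h of 1 uM FCCP/oligomycin stimulation. Before that, HeLa MKYP cells spent 16 h with compound over a concentration range.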

HeLa MKYP cells [2] = experiment: Cell death measured by DAPI staining, with 1 μM FCCP/oligomycin or no toxin (no FO); type: cell-based; conditions: for E105 death at 8.3 μM (no FO): 8.3 μM compound; for Max cell death at 25 μM compound, 1 uM FO (%) / Cell death at 25 μM (no FO) (%) / E104 death at 25 μM (no FO): 25 μM compound
Summary of the method: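 Cell death was read by DAPI staining after 6–6.5 h compound exposure in HeLa MKYP cells, either with 1 μM FCCP/oligomycin or without toxin. H2O2 served as the cell-death control.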

[3] = Mitotoxicity / Mitotox safety margin (therapeutic window); type: cell-based
Kinetic solubility = type: physicochemical
pS129 α-syn = experiment: Preformed fibril (PFF) model in primary neuron culture, pS129 α-syn; type: cell-based; conditions: increasing doses
Description: 4. Preformed Fibril Model
Mouse and human alpha-synuclein monomers have been sourced commercially, then pre-formed fibrils have been generated as per the detailed protocol provided by the MJFF. For in vitro experiments primary hippocampal neurons isolated from P0 pups were grown for 7 days after which PFFs at 5 ug/ml were introduced Pre-formed fibrils will be introduced via stereotactic injection into the striatum of wt (C57BL/6J, Jax #000664) and transgenic A53T mice (B6;C3-Tg(Prnp-SNCA*A53T)83Vle/J, Jax #004479). Cohorts of drug-treated (oral gavage) and untreated animals will then be allowed to age for up to 6 months, at which point they will be sacrificed and perfused. Brains will be removed and fixed, then sectioned for analysis. We anticipate that untreated A53T animals will show significant spreading of aggregated alpha-synuclein pathology and pS129 staining, as well as some possible neurodegeneration; wt animals are also expected to show pS129 synuclein staining and synuclein aggregation, albeit less than that seen in the A53T background.

[4] = Inspection of crystallization and round cells; type: physicochemical; set-up: key: 1=yes crystals; 0=no crystals
Description: 5. Inspection of Crystallization and Round Cells
Briefly, the Hela MKYP (Mito-Keima/YFP-Parkin) cells were seeded at 10K cells/well. EP/MTK compounds were added at seeding (cells were still in suspension). The cells were incubated with the EP/MTK compounds for 16 hours, then 1 μM FCCP/oligomycin was added for 6 hours. Prior to harvesting, cells were scored by eye under 20× magnification for the presence or absence of crystalline or aggregated compound, or round cells.

[5] = HeLa mKeima assay, read-out: Mitophagy EC50 (HeLa mKeima assay)
[6] = read-out: Mitophagy induction EC50
[7] = mitophagy, 1 μM FCCP/oligomycin

Structure (SMILES) | EC50 (HeLa MKYP cells [1]; [5]) [µM] | EC50 (HeLa MKYP cells [1]; [6]) [µM] | Max cell death at 25 μM compound, 1 uM FO (%) (HeLa MKYP cells [2]) | Cell death at 25 μM (no FO) (%) (HeLa MKYP cells [2]) | Highest safe dose (cytotoxicity; no FO; safe means DAPI+ <20%) (HeLa MKYP cells [2]) [µM] | Max % death with 1 μM FO (HeLa MKYP cells [2]) [%] | solubility kinetic (Kinetic solubility) [µM] | Mitophagy EC50 (HeLa mKeima assay) (μM) (HeLa MKYP cells [1]; HeLa mKeima assay) | also measured
FC(F)(F)c1cc2c(N[C@@H]3c4ccccc4CC[C@H]3N3CCOCC3)ncnc2[nH]1 (racemic) [EP-0037821] | 0.4 | 0.38 | 71.62 | 41.03 | 13.9 | 68.5 | 14.1 (≈ 5.89 µg/mL) |  | E102 max mitophagy, fold over DMSO (HeLa MKYP cells [1]; 1 μM FCCP/oligomycin): 9.53 fold over DMSO; EC50 (HeLa MKYP cells [1]; mitophagy, 1 μM FCCP/oligomycin, read-out: E100 EC50): 0.45 µM; E101 lowest effective dose (HeLa MKYP cells [1]; [7]): 0.30 µM; E105 death at 8.3 μM (no FO) (HeLa MKYP cells [2]): 2.87; E104 death at 25 μM (no FO) (HeLa MKYP cells [2]): 25.17; E103 max death with 1 μM FO (HeLa MKYP cells [2]): 62.82; Mitotox safety margin (Therapeutic window) [3]: ++++ (++++ = 30<); Mito-Safety Index (highest safe dose/EC50) [3]: 22.05; Highest safe dose (μM) (mitotox or cytotox) [3]: 8.3 µM
FC(F)(F)c1cc2c(N[C@@H]3c4ccccc4CC[C@H]3N3CCOCC3)ncnc2[nH]1 (single isomer, unassigned) [EP-0038099] |  |  | 13.7 | 4.11 |  |  | 14.1 (≈ 5.89 µg/mL) | Minimal | E102 max mitophagy, fold over DMSO (HeLa MKYP cells [1]; 1 μM FCCP/oligomycin): 7.78 fold over DMSO; E101 lowest effective dose (HeLa MKYP cells [1]; [7]): 25.00 µM; E105 death at 8.3 μM (no FO) (HeLa MKYP cells [2]): 2.41; E104 death at 25 μM (no FO) (HeLa MKYP cells [2]): 4.11; E103 max death with 1 μM FO (HeLa MKYP cells [2]): 13.71
O=C1COCCN1[C@H]1CCc2ccccc2[C@@H]1Nc1ncnc2[nH]c(C(F)(F)F)cc12 (single isomer, unassigned) [EP-0038378] | 2.77 | > 25 | 15.4 | 4.55 | 25.0 | 15.4 | 3.02 (≈ 1.3 µg/mL) |  | 
FC(F)(F)c1cc2c(N[C@H]3c4ccccc4CC[C@@H]3N3CCCCC3)ncnc2[nH]1 (single isomer, unassigned) [EP-0038392] | 2.77 | > 25 | 23.2 | 3.1 | 25.0 | 23.2 | 187 (≈ 77.7 µg/mL) |  | 
FC1(F)CCN([C@H]2CCc3ccccc3[C@@H]2Nc2ncnc3[nH]c(C(F)(F)F)cc23)CC1 (single isomer, unassigned) [EP-0038393] | 2.43 | > 25 | 17.6 | 1.98 | 25.0 | 17.6 | 1 (≈ 0.451 µg/mL) |  | 
FC(F)(F)c1cc2c(N[C@H]3c4ccccc4CC[C@@H]3N3CC4(COC4)C3)ncnc2[nH]1 [EP-0038249] | 2.73 | > 25 | 37.3 | 3.69 | 25.0 | 37.3 | 157 (≈ 67.4 µg/mL) |  | 
COC1CCN([C@H]2CCc3ccccc3[C@@H]2Nc2ncnc3[nH]c(C(F)(F)F)cc23)CC1 [EP-0038282] |  | > 25 | 97.5 | 66.6 | 2.8 | 97.5 | 134 (≈ 59.7 µg/mL) | Minimal | 
FC(F)(F)c1cc2c(N[C@H]3c4ccccc4CC[C@@H]3N3C4CCC3COC4)ncnc2[nH]1 [EP-0038283] |  | > 25 | 98 | 9.6 | 8.3 | 98.0 | 1 (≈ 0.443 µg/mL) | Minimal | 
CN(CC1CCOCC1)[C@H]1CCc2ccccc2[C@@H]1Nc1ncnc2[nH]c(C(F)(F)F)cc12 [EP-0038394] | 8.26 | > 25 | 61 | 11.4 | 8.3 | 61.0 | 7.05 (≈ 3.24 µg/mL) |  | 
c1ccc2c(c1)CC[C@H](N1CCOCC1)[C@H]2Nc1ncnc2[nH]cnc12 [EP-0039678] |  |  | 2.27 | 1.77 |  |  | 164 (≈ 57.5 µg/mL) | Minimal | 
C[C@@H]1CN([C@@H]2COc3cc(F)ccc3[C@H]2Nc2ncnc3[nH]c(C(F)(F)F)cc23)CCO1 [EP-0041088] |  | 0.12 |  |  | 25.0 | 16.2 |  |  | Mito-Safety Index (highest safe dose/EC50) [3]: 128.93; Highest safe dose (μM) (mitotox or cytotox) [3]: 15.7 µM; pS129 α-syn (250-12) in primary neuron culture (pS129 α-syn): reduces; pS129 α-syn (monomer) in primary neuron culture (pS129 α-syn): reduces; pS129 α-syn in primary neuron culture (pS129 α-syn): reduces
CO[C@@H]1CCN([C@H]2COc3ccccc3[C@@H]2Nc2ncnc3[nH]c(C(F)(F)F)cc23)C1 [EP-0041161] |  | 0.05 |  |  | 25.0 | 8.5 |  |  | Mito-Safety Index (highest safe dose/EC50) [3]: 75.49; Highest safe dose (μM) (mitotox or cytotox) [3]: 3.4 µM; pS129 α-syn (250-12) in primary neuron culture (pS129 α-syn): reduces; pS129 α-syn (monomer) in primary neuron culture (pS129 α-syn): reduces; pS129 α-syn in primary neuron culture (pS129 α-syn): reduces
c1coc(CNc2ncnc3[nH]cnc23)c1 [Kinetin, kinetin, reference compound] |  |  |  |  |  |  |  |  | visual inspection of crystallization ([4]; 0.1 μM compound): 0; visual inspection of crystallization ([4]; 0.3 μM compound): 0; visual inspection of crystallization ([4]; 0.9 μM compound): 0; visual inspection of crystallization ([4]; 2.8 μM compound): 0; visual inspection of crystallization ([4]; 8.3 μM compound): 0; visual inspection of crystallization ([4]; 25.0 μM compound, HeLa MKYP culture, 20× magnification): 0
